From ChEMBL document CHEMBL1131893, “Antitumor agents 201. Cytotoxicity of harmine and beta-carboline analogs” (1999) come the findings set out here.

Test [1] deals with MCF7. Nature of the test: In vitro cytotoxic activity against MCF-7 (human breast cancer) cell line. Particulars: read-out: ED50 (the source's name). The test is classed as functional.
The subject of test [2] is KB. The experiment in a line: In vitro cytotoxic activity was determined against epidermoid carcinoma of the nasopharynx (KB) cell line. To be noted: Homo sapiens, read-out: ED50 (the source's name). The test is classed as functional.
Test [3] concerns KB. Nature of the test: In vitro cytotoxic activity was determined against drug resistant tumor cell line KB-VIN (expressing P-glycoprotein). It is filed as functional. To be noted: Homo sapiens, read-out: ED50 (the source's name).
In a further test the test system is A549. The experiment in a line: In vitro cytotoxic activity was determined against lung carcinoma (A549) cell line. It is filed as functional. Particulars: Homo sapiens, read-out: ED50 (the source's name).
Test [4] deals with CAKI-1. Nature of the test: In vitro cytotoxic activity was determined against renal cancer (CAKI-1) cell line. It is filed as functional. To be noted: Homo sapiens, read-out: ED50 (the source's name).
The test system of another test is 1A9. Nature of the test: In vitro cytotoxic activity was determined against ovarian cancer (1A9) cell line. The test is classed as functional. Particulars: Homo sapiens, read-out: ED50 (the source's name).
The subject of test [5] is KB. Nature of the test: In vitro cytotoxic activity was determined against drug resistant tumor cell line KB-CPT (pleotrophic mechanism including level of topoisomerase I). It is filed as functional. To be noted: Homo sapiens, read-out: ED50 (the source's name).
The test system of a further test is U-87 MG. The experiment in a line: In vitro cytotoxic activity against U-87-MG (glioblastoma) cell line. The test is classed as functional, U-87MG ATCC. Particulars: Homo sapiens, read-out: ED50 (the source's name).
In test [6] the test system is KB. Nature of the test: In vitro cytotoxic activity was determined against drug resistant tumor cell line KB-7d (pleotrophic resistance including MRP multidrug resistant protein). The test is classed as functional. Particulars: Homo sapiens, read-out: ED50 (the source's name).
For the next test, the system named is SK-MEL-2. The experiment in a line: In vitro cytotoxic activity was determined against melanoma cancer (SK-MEL-2) cell line. The test is classed as functional. To be noted: Homo sapiens, read-out: ED50 (the source's name).
The next test relates to HEL. The experiment in a line: In vitro cytotoxic activity was determined against embryonic lung fibroblast (HEL) cell line. It is filed as functional. Particulars: Homo sapiens, read-out: ED50 (the source's name).
A further test deals with HOS. The experiment in a line: In vitro cytotoxic activity was determined against osteosarcoma ( HOS) cell line. It is filed as functional. Particulars: Homo sapiens, read-out: ED50 (the source's name).
Test [7] has as its system HCT-8. Nature of the test: In vitro cytotoxic activity was determined against ileocecal carcinoma (HCT-8) cell line. The test is classed as functional. To be noted: Homo sapiens, read-out: ED50 (the source's name).
In a further test the test system is SAOS-2. The experiment in a line: In vitro cytotoxic activity was determined against osteosarcoma (SaOS-2) cell line. It is filed as functional. Particulars: Homo sapiens, read-out: ED50 (the source's name).
Test [8] deals with CAKI-1. Nature of the test: In vitro cytotoxic activity was determined against renal cancer (CAKI-1) cell line; Not active. To be noted: Homo sapiens. The test is classed as functional, cell-based.
Test [9] has as its system HCT-8. The experiment in a line: In vitro cytotoxic activity was determined against ileocecal carcinoma (HCT-8) cell line; Not active. It is filed as functional, cell-based. To be noted: Homo sapiens.
Test [10] has as its system KB. Nature of the test: In vitro cytotoxic activity was determined against epidermoid carcinoma of the nasopharynx (KB) cell line; Not active. It is filed as functional, cell-based. Particulars: Homo sapiens.
Test [11] relates to MCF7. The experiment in a line: In vitro cytotoxic activity was determined against breast cancer (MCF-7) cell line; Not active. The test is classed as functional, cell-based. To be noted: Homo sapiens.

Structures are written as SMILES. ≈ marks a conversion by molar mass, not a printed value. Calls of active or inactive are those of the source. The calls are words filed in the database; no cut-off is given here.

On to `Cc1nccc2c1[nH]c1ccccc12` [HARMAN], for which the EC50 was 19 µg/mL (≈ 104 µM) in the test on MCF7 [1]; 8.9 µg/mL (≈ 48.8 µM) with KB [2]; 17.5 µg/mL (≈ 96 µM) with KB [3]; 9.3 µg/mL (≈ 51 µM) in the test with A549; 8 µg/mL (≈ 43.9 µM) in the test on CAKI-1 [4]; 6.1 µg/mL (≈ 33.5 µM) in the test with 1A9. Besides, the EC50 in the test with KB [5] is 15 µg/mL (≈ 82.3 µM); in the test with U-87 MG, 19 µg/mL (≈ 104 µM); in the test on KB [6], 16.5 µg/mL (≈ 90.5 µM); in the test with SK-MEL-2, > 20 µg/mL; in the test on HEL it was 9.8 µg/mL (≈ 53.8 µM).

As to `CCCCCCCCCCOc1ccc2c(c1)[nH]c1c(C)nccc12`, the EC50 worked out at 6.7 µg/mL (≈ 19.8 µM) in the test on HOS; 3.8 µg/mL (≈ 11.2 µM) with MCF7 [1]; 2 µg/mL (≈ 5.91 µM) with KB [2]; 1.2 µg/mL (≈ 3.55 µM) in the test on A549; 5 µg/mL (≈ 14.8 µM) in the test on CAKI-1 [4]; 1.4 µg/mL (≈ 4.14 µM) in the test with 1A9. The values for the EC50 with U-87 MG and in the test with HCT-8 [7] were 5.4 µg/mL (≈ 16 µM) and 4.1 µg/mL (≈ 12.1 µM), respectively.

`Cc1[nH]ccc2c1[nH]c1cc(=O)ccc12` [HARMOL]: the EC50 with MCF7 [1] amounted to 9.2 µg/mL (≈ 46.4 µM); with KB [2], 4.4 µg/mL (≈ 22.2 µM); in the test on A549, 6.5 µg/mL (≈ 32.8 µM); in the test with CAKI-1 [4] it was 9.2 µg/mL (≈ 46.4 µM); in the test on 1A9, 3.8 µg/mL (≈ 19.2 µM); in the test with U-87 MG, 4.2 µg/mL (≈ 21.2 µM).

In the case of `CC(=O)Oc1ccc2c(c1)[nH]c1c(C)nccc12`, the EC50 is 7.5 µg/mL (≈ 31.2 µM) in the test with MCF7 [1]; 19.5 µg/mL (≈ 81.2 µM) with KB [2]; 4.3 µg/mL (≈ 17.9 µM) in the test on A549; 10.2 µg/mL (≈ 42.5 µM) with CAKI-1 [4]; 4.5 µg/mL (≈ 18.7 µM) in the test with 1A9; 5 µg/mL (≈ 20.8 µM) in the test on SK-MEL-2. In addition, the EC50 in the test on SAOS-2 was > 20 µg/mL.

In the case of `CCCCCCCCCCCCCCCCOc1ccc2c(c1)[nH]c1c(C)nccc12`, the EC50 came out at 5 µg/mL (≈ 11.8 µM) with HOS, 5 µg/mL (≈ 11.8 µM) in the test with A549 and 8 µg/mL (≈ 18.9 µM) in the test with 1A9. In addition, the ED50 result in the test with CAKI-1 [8], in the test on HCT-8 [9], in the test with KB [10] and in the test with MCF7 [11] was “inactive” each time.

With `CCCCn1c2cc(OC)ccc2c2ccnc(C)c21`, the EC50 in the test on MCF7 [1] stood at 9.5 µg/mL (≈ 35.4 µM); in the test on KB [2], 7.8 µg/mL (≈ 29.1 µM); with A549 it was 6 µg/mL (≈ 22.4 µM); in the test on CAKI-1 [4] it was 11 µg/mL (≈ 41 µM); in the test with 1A9 it was 2.2 µg/mL (≈ 8.2 µM); in the test on U-87 MG, 12.3 µg/mL (≈ 45.8 µM). Moreover, the EC50 in the test on HCT-8 [7] is > 20 µg/mL.

Turning to `Br.COc1ccc2c3c([nH]c2c1)C(C)=NCC3`, the EC50 was 10 µg/mL in the test with MCF7 [1]; 9.7 µg/mL in the test on KB [2]; 9.8 µg/mL with A549; > 10 µg/mL in the test with CAKI-1 [4]; > 10 µg/mL in the test with 1A9; 9.8 µg/mL in the test on U-87 MG. The EC50 is > 10 µg/mL in the test with SK-MEL-2 and 6.8 µg/mL in the test on SAOS-2.

For the compound `CCCCCCCCC1NC(C(=O)O)Cc2c1[nH]c1cc(OC)ccc21` (centres undefined), the EC50 in the test on KB [2], with A549, in the test on CAKI-1 [4] and in the test on 1A9 was > 20 µg/mL each time.

As to `COc1ccc2c3ccnc(C)c3n(C)c2c1`, the EC50 came out at 4.3 µg/mL (≈ 19 µM) in the test on MCF7 [1]; 2.2 µg/mL (≈ 9.72 µM) in the test with KB [2]; 4.2 µg/mL (≈ 18.6 µM) in the test on A549; 5 µg/mL (≈ 22.1 µM) with CAKI-1 [4]; 1.8 µg/mL (≈ 7.95 µM) with 1A9; 7.8 µg/mL (≈ 34.5 µM) with U-87 MG. Besides, the EC50 in the test with HCT-8 [7] was > 20 µg/mL.

In the case of `COc1ccc2c(c1)[nH]c1c(C)nccc12` [HARMINE], the EC50 came to 10.5 µg/mL (≈ 49.5 µM) in the test with MCF7 [1]; 2.2 µg/mL (≈ 10.4 µM) in the test with KB [2]; 2.5 µg/mL (≈ 11.8 µM) in the test with KB [3]; 2.4 µg/mL (≈ 11.3 µM) with A549; 1.9 µg/mL (≈ 8.95 µM) in the test on CAKI-1 [4]; 1.6 µg/mL (≈ 7.54 µM) in the test on 1A9. Further, the EC50 with KB [5] came out at 4.3 µg/mL (≈ 20.3 µM); in the test with U-87 MG it was 14.5 µg/mL (≈ 68.3 µM); with KB [6], 3.7 µg/mL (≈ 17.4 µM); in the test with SK-MEL-2, 18.5 µg/mL (≈ 87.2 µM); in the test on HEL it was 1.9 µg/mL (≈ 8.95 µM).

In the case of `Cc1nccc2c1[nH]c1cc(OC(=O)C34CCC(C)(C(=O)O3)C4(C)C)ccc12` (centres undefined), the EC50 in the test with MCF7 [1] was 20 µg/mL (≈ 52.9 µM); in the test on KB [2], > 10 µg/mL; in the test with A549 it was 17 µg/mL (≈ 44.9 µM); in the test with CAKI-1 [4], > 20 µg/mL; with 1A9, 19.5 µg/mL (≈ 51.5 µM); with SK-MEL-2, > 20 µg/mL. In addition, the EC50 in the test on SAOS-2 is > 20 µg/mL.

Consider `COS(=O)(=O)O.Cc1nccc2c1[nH]c1ccccc12`, for which the EC50 in the test with KB [2] was 10.5 µg/mL; in the test with A549, > 20 µg/mL; with CAKI-1 [4], > 20 µg/mL; in the test on 1A9, > 20 µg/mL; with HEL it was > 20 µg/mL.

On to `CCCn1c2cc(OC)ccc2c2cc[n+](C)c(C)c21.[I-]`, for which the EC50 was > 20 µg/mL in the test with MCF7 [1]; 1.8 µg/mL in the test with KB [2]; > 40 µg/mL in the test on KB [3]; 4 µg/mL in the test on A549; 9.2 µg/mL in the test with CAKI-1 [4]; < 1.3 µg/mL in the test with 1A9. The EC50 is 3 µg/mL in the test with KB [5]; > 20 µg/mL with U-87 MG; 35.5 µg/mL in the test with KB [6]; 18 µg/mL in the test with SK-MEL-2; 15 µg/mL in the test on HEL.
